Patent publication US20100221763A1, “Specific Acceptors for Transferases to Saccharides and Method for Obtaining and Using Same” (Health Research, Inc, priority 2005, published 2010)

Assays:
[1] = test system: α1,3-L-FT of breast tumor BC9400; experiment: α1,3-L-FT assay, breast tumor extract; assay type: biochemical, human; conditions: 1 mg protein of the tissue extract
Procedure: (§1) Colon tumor tissue (CC9338) and breast tumor tissue (BC9400) were obtained during surgical procedures at Roswell Park Cancer Institute and stored frozen within 1 h at −70° C. The tissues were homogenized at 4° C. with 4 volumes of 0.1M Tris Maleate […] 0.1% NaN3 using kinematica. After adjusting the concentration of Triton X-100 to 2%, these homogenates were mixed in the cold room for 1 h using Speci-Mix (Thermolyne) and then centrifuged at 20,000 g for 1 h at 4° C. The clear fat-free supernatant was stored frozen at −20° C. until use. Aliquots of 10 μL from this extract were used in assays run in duplicates. Glycosyltransferase activity in cell lysate was determined by mixing the lysates with acceptor and radiolabeled donor (monosaccharide) under the reaction conditions detailed below, followed by separation of un-reacted donor from the radioactive product using anionic or hydrophobic chromatography. In all cases, the radioactive content of isolated products was determined by using 3a70 scintillation cocktail (Research Products International, Mount Prospect, Ill.) and a Beckman LS6500 scintillation counter. Controls for each assay contained the reaction mixture with everything except the acceptor. All assays were run in duplicate. […]

[2] = test system: α1,3-L-FT of colon tumor CC9338; experiment: α1,3-L-FT assay, colon tumor extract; assay type: biochemical, human; conditions: 1 mg protein of the tissue extract
Procedure: as §1

[3] = test system: α1,4-L-FT of colon tumor CC9338; experiment: α1,4-L-FT assay, colon tumor extract; assay type: biochemical, human; conditions: 1 mg protein of the tissue extract
Procedure: as §1

[4] = test system: α1,4-L-FT of breast tumor BC9400; experiment: α1,4-L-FT assay, breast tumor extract; assay type: biochemical, human; conditions: 1 mg protein of the tissue extract
Procedure: as §1

[5] = molecular target: T1, Rat recombinant α2,3(O)ST (Rattus norvegicus, UniProt Q11205); experiment: Sialyltransferase assay with cloned α2,3(O)ST; assay type: biochemical; conditions: for acceptor efficiency for cloned α2,3(O)ST (FIG. 6C): compared to Galβ1,3GalNAcβ1,3Galα-O-Me
T1 construct: purchased Calbiochem
T1 sequence (Q11205 1-350): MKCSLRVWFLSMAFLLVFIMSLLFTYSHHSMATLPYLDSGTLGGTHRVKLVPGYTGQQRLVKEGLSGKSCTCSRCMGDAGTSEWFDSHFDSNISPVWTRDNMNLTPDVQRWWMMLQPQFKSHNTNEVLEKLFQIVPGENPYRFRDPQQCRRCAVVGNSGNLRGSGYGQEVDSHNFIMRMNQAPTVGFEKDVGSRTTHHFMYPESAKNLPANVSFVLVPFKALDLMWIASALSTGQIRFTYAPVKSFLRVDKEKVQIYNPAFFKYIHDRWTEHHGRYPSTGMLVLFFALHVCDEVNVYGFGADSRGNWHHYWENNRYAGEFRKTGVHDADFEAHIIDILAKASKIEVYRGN

CO[C@H]1[C@H](O[C@H]2[C@H](O)[C@@H](NC(C)=O)C(O)O[C@@H]2CO)O[C@H](CO)[C@H](O)[C@@H]1O (stereo partly shown) [2-O-MeGalβ1,4GlcNAc]
α1,3-L-FT activity: incorporation of radioactive sugar [1]: 30.5 CPM × 10^−3
α1,3-L-FT activity: incorporation of radioactive sugar [2]: 540.9 CPM × 10^−3

CO[C@H]1[C@H](O[C@H]2[C@H](O)[C@@H](CO)OC(O)[C@@H]2NC(C)=O)O[C@H](CO)[C@H](O)[C@@H]1O (stereo partly shown) [2-O-MeGalβ1,3GlcNAc]
α1,4-L-FT activity: incorporation of radioactive sugar [3]: 727.5 CPM × 10^−3
α1,4-L-FT activity: incorporation of radioactive sugar [4]: 4.6 CPM × 10^−3

CO[C@H]1O[C@H](CO)[C@H](O)[C@H](O[C@@H]2O[C@H](CO)[C@H](O)[C@H](O[C@@H]3O[C@H](C)[C@H](O)[C@H](O)[C@H]3O)[C@H]2NC(C)=O)[C@H]1O [D-Fucβ1,3GalNAcβ1,3Galα-O-Me]
acceptor efficiency for cloned α2,3(O)ST (FIG. 6C) ([5]; 0.15 mM): about 50%
acceptor efficiency for cloned α2,3(O)ST (FIG. 6C) ([5]; 0.75 mM): ~100%
Sialyltransferase activity (%) Cloned α2,3(O)ST ([5]; Table I, acceptor 7.5 mM, 100% = 40560 CPM (3-O-MeGalβ1,4GlcNAcβ1,6(Galβ1,3)GalNAcα-O-Bn), listed as D-Fucβ1,3GalNAcβ1,3-Gal-O-Me): 115.6%
